The results in this text go back to patent publication US20030004172A1, “Fused pyrimidinone matrix metalloproteinase inhibitors” (priority 2001, published 2003).

This assay deals with MMP-13CD (catalytic domain of collagenase-3) (Homo sapiens, UniProt P45452). As to the kind of experiment: Thiopeptolide substrate hydrolysis inhibition assay, MMP-13CD. The format is biochemical. Particulars: Table I; thiopeptolide substrate, HEPES pH 7.0, 22° C.; read-out: MMP-13CD IC50. An excerpt:
Thiopeptolide substrates show virtually no decomposition or hydrolysis at or below neutral pH in the absence of a matrix metalloproteinase enzyme.

On to `COc1cccc(CNC(=O)c2cc3c(=O)n(Cc4ccc(OC(F)(F)F)cc4)c(=O)n(C)c3s2)c1` [Example 83, 1-Methyl-2,4-dioxo-3-(4-trifluoromethoxy-benzyl)-1,2,3,4-tetrahydro-thieno[2,3-d]pyrimidine-6-carboxylic acid 3-methoxy-benzylamide], for which the IC50 (as a rule, the point on the concentration scale where inhibition reaches its midpoint) worked out at 140 nM.

`COC(=O)c1ccc(Cn2c(=O)c3cc(C(=O)NCc4cccc(OC)c4)sc3n(C)c2=O)cc1` [Example 84, 4-[6-(3-Methoxy-benzylcarbamoyl)-1-methyl-2,4-dioxo-1,4-dihydro-2H-thieno[2,3-d]pyrimidin-3-ylmethyl]-benzoic acid methyl ester]: the IC50 amounted to 20.5 nM.

For `COc1cccc(CNC(=O)c2cc3c(=O)n(Cc4ccc5c(c4)OCC5)c(=O)n(C)c3s2)c1` [Example 85, 3-(2,3-Dihydro-benzofuran-6-ylmethyl)-1-methyl-2,4-dioxo-1,2,3,4-tetrahydro-thieno[2,3-d]pyrimidine-6-carboxylic acid 3-methoxy-benzylamide], the IC50 was 47.5 nM.

With `COc1cccc(CNC(=O)c2cc3c(=O)n(Cc4cnc(C)s4)c(=O)n(C)c3s2)c1` [Example 86, 1-Methyl-3-(2-methyl-thiazol-5-ylmethyl)-2,4-dioxo-1,2,3,4-tetrahydro-thieno[2,3-d]pyrimidine-6-carboxylic acid 3-methoxy-benzylamide], the 50% inhibitory concentration (IC50) was 1400 nM.

As for `Cn1c(=O)n(Cc2ccc(-c3nnn[nH]3)cc2)c(=O)c2cc(C(=O)NCc3ccc(F)cc3)sc21` [Example 87, 1-Methyl-2,4-dioxo-3-[4-(1H-tetrazol-5-yl)-benzyl]-1,2,3,4-tetrahydro-thieno[2,3-d]pyrimidine-6-carboxylic acid 4-fluoro-benzylamide], the IC50 came to 18.5 nM.

With `COc1nc2sc(C(=O)OCc3ccccc3)cc2c(=O)n1Cc1ccccc1` [Example 88, 3-Benzyl-2-methoxy-4-oxo-3,4-dihydro-thieno[2,3-d]pyrimidine-6-carboxylic acid benzyl ester], the IC50 is 3150 nM.

For `COc1cccc(CNC(=O)c2cc3c(=O)n(Cc4ccc(C(=O)OCOC(=O)C(C)(C)C)cc4)c(=O)n(C)c3s2)c1` [Example 89, 4-[6-(3-Methoxy-benzylcarbamoyl)-1-methyl-2,4-dioxo-1,4-dihydro-2H-thieno[2,3-d]pyrimidin-3-ylmethyl]-benzoic acid 2,2-dimethyl-propionyloxymethyl ester], the IC50 came out at 113 nM.

For the compound `COc1cccc(CNC(=O)c2cc3c(=O)n(CC4CCC(C(=O)O)CC4)c(=O)n(C)c3s2)c1` (centres unmarked) [Example 90, 4-[6-(3-Methoxy-benzylcarbamoyl)-1-methyl-2,4-dioxo-1,4-dihydro-2H-thieno[2,3-d]pyrimidin-3-ylmethyl]-cyclohexanecarboxylic acid], the 50% inhibitory concentration (IC50) is 5.43 nM.

Regarding `COC(=O)C1CCC(Cn2c(=O)c3cc(C(=O)NCc4cccc(OC)c4)sc3n(C)c2=O)CC1` (centres unmarked) [Example 91, 4-[6-(3-Methoxy-benzylcarbamoyl)-1-methyl-2,4-dioxo-1,4-dihydro-2H-thieno[2,3-d]pyrimidin-3-ylmethyl]-cyclohexanecarboxylic acid methyl ester], the half-maximal inhibitory concentration (IC50) amounted to 49.6 nM.

As to `COC(=O)C1(c2ccc(Cn3c(=O)c4cc(C(=O)NCc5cccc(OC)c5)sc4n(C)c3=O)cc2)CC1` [Example 92, 1-{4-[6-(3-Methoxy-benzylcarbamoyl)-1-methyl-2,4-dioxo-1,4-dihydro-2H-thieno[2,3-d]pyrimidin-3-ylmethyl]-phenyl}-cyclopropanecarboxylic acid methyl ester], the half-inhibitory concentration (IC50) is 10.9 nM.

Take `COc1cccc(CNC(=O)c2cc3c(=O)n(Cc4ccc(C5(C(=O)OC(C)(C)C)CC5)cc4)c(=O)n(C)c3s2)c1` [Example 93, 1-{4-[6-(3-Methoxy-benzylcarbamoyl)-1-methyl-2,4-dioxo-1,4-dihydro-2H-thieno[2,3-d]pyrimidin-3-ylmethyl]-phenyl}-cyclopropanecarboxylic acid tert-butyl ester]: the half-maximal inhibitory concentration (IC50) is 111 nM.

Turning to `COc1cccc(CNC(=O)c2cc3c(=O)n(Cc4ccc(C5(C(=O)O)CC5)cc4)c(=O)n(C)c3s2)c1` [Example 94, 1-{4-[6-(3-Methoxy-benzylcarbamoyl)-1-methyl-2,4-dioxo-1,4-dihydro-2H-thieno[2,3-d]pyrimidin-3-ylmethyl]-phenyl}-cyclopropanecarboxylic acid], the 50% inhibitory concentration (IC50) is 5.35 nM.

As for `COc1cccc(CNC(=O)c2cc3c(=O)n(Cc4ccc(OC(C)(C)C(=O)OC(C)(C)C)cc4)c(=O)n(C)c3s2)c1` [Example 95, 2-{4-[6-(3-Methoxy-benzylcarbamoyl)-1-methyl-2,4-dioxo-1,4-dihydro-2H-thieno[2,3-d]pyrimidin-3-ylmethyl]-phenoxy}-2-methyl-propionic acid tert-butyl ester], the IC50 is 103 nM.

In the case of `COc1cccc(CNC(=O)c2cc3c(=O)n(Cc4ccc(OC(C)(C)C(=O)O)cc4)c(=O)n(C)c3s2)c1` [Example 96, 2-{4-[6-(3-Methoxy-benzylcarbamoyl)-1-methyl-2,4-dioxo-1,4-dihydro-2H-thieno[2,3-d]pyrimidin-3-ylmethyl]-phenoxy}-2-methyl-propionic acid], the IC50 turned out to be 18.5 nM.

`Cn1c(=O)n(Cc2ccccc2)c(=O)c2cc(C(=O)OCc3ccccc3)oc21` [Example 97, 3-Benzyl-1-methyl-2,4-dioxo-1,2,3,4-tetrahydro-furo[2,3-d]pyrimidine-6-carboxylic acid benzyl ester]: the concentration for half-maximal inhibition (IC50) was above 100000 nM.

Turning to `COc1cccc(Cn2c(=O)c3cc(C(=O)OCc4ccccc4)sc3n(C)c2=O)c1` [Example 98, 3-(3-Methoxy-benzyl)-1-methyl-2,4-dioxo-1,2,3,4-tetrahydro-thieno[2,3-d]pyrimidine-6-carboxylic acid benzyl ester], the IC50 came to 63 nM.

In the case of `Cn1c(=O)n(Cc2ccc(-c3ccccc3)cc2)c(=O)c2cc(C(=O)OCc3ccccc3)sc21` [Example 100, 3-Biphenyl-4-ylmethyl-1-methyl-2,4-dioxo-1,2,3,4-tetrahydro-thieno[2,3-d]pyrimidine-6-carboxylic acid benzyl ester], the IC50 was determined as 610 nM.

Turning to `Cn1c(=O)n(Cc2ccc(S(C)(=O)=O)cc2)c(=O)c2cc(C(=O)OCc3ccccc3)sc21` [Example 101, 3-(4-Methanesulfonyl-benzyl)-1-methyl-2,4-dioxo-1,2,3,4-tetrahydro-thieno[2,3-d]pyrimidine-6-carboxylic acid benzyl ester], the IC50 came to 34 nM.

Take `Cn1c(=O)n(Cc2ccc(S(C)(=O)=O)cc2)c(=O)c2cc(C(=O)OCc3ccccc3)sc21` [Example 102, 3-(4-Methanesulfonyl-benzyl)-1-methyl-2,4-dioxo-1,2,3,4-tetrahydro-thieno[2,3-d]pyrimidine-6-carboxylic acid benzyl ester]: the IC50 came to 34 nM.

For the compound `Cc1ccc(Cn2c(=O)c3cc(C(=O)OCc4ccccc4)sc3n(C)c2=O)cc1` [Example 103, 1-Methyl-3-(4-methyl-benzyl)-2,4-dioxo-1,2,3,4-tetrahydro-thieno[2,3-d]pyrimidine-6-carboxylic acid benzyl ester], the concentration for half-maximal inhibition (IC50) was determined as 30 nM.

In the case of `Cn1c(=O)n(CCc2ccccc2)c(=O)c2cc(C(=O)OCc3ccccc3)sc21` [Example 104, 1-Methyl-2,4-dioxo-3-phenethyl-1,2,3,4-tetrahydro-thieno[2,3-d]pyrimidine-6-carboxylic acid benzyl ester], the half-inhibitory concentration (IC50) came out at 1100 nM.

In the case of `Cn1c(=O)n(Cc2nc(N)nc(Nc3ccccc3)n2)c(=O)c2cc(C(=O)OCc3ccccc3)sc21` [Example 105, 3(4-Amino-6-phenylamino-1,3,5-triazin-2-ylmethyl)-1-methyl-2,4-dioxo-1,2,4-tetrahydro-thieno[2,3-d]pyrimidine-6-carboxylic acid benzyl ester], the IC50 is 520 nM.

`Cn1c(=O)n(Cc2ccc(C(F)(F)F)cc2)c(=O)c2cc(C(=O)OCc3ccccc3)sc21` [Example 106, 1-Methyl-2,4-dioxo-3-(4-trifluoromethyl-benzyl)-1,2,3,4-tetrahydro-thieno[2,3-d]pyrimidine-6-carboxylic acid benzyl ester]: the concentration for half-maximal inhibition (IC50) turned out to be 590 nM.

On to `Cn1c(=O)n(CCCCCCC#N)c(=O)c2cc(C(=O)OCc3ccccc3)sc21` [Example 107, 3-(6-Cyano-hexyl)-1-methyl-2,4-dioxo-1,2,3,4-tetrahydro-thieno[2,3-d]pyrimidine-6-carboxylic acid benzyl ester], for which the half-maximal inhibitory concentration (IC50) was 2400 nM.

Take `COc1ccc(OC)c(C(=O)Cn2c(=O)c3cc(C(=O)OCc4ccccc4)sc3n(C)c2=O)c1` [Example 108, 3-[2-(2,5-Dimethoxy-phenyl)-2-oxo-ethyl]-1-methyl-2,4-dioxo-1,2,3,4-tetrahydro-thieno[2,3-d]pyrimidine-6-carboxylic acid benzyl ester]: the concentration for half-maximal inhibition (IC50) is 1700 nM.

In the case of `Cn1c(=O)n(Cc2cccc(I)c2)c(=O)c2cc(C(=O)OCc3ccccc3)sc21` [Example 109, 3-(3-Iodo-benzyl)-1-methyl-2,4-dioxo-1,2,3,4-tetrahydro-thieno[2,3-d]pyrimidine-6-carboxylic acid benzyl ester], the half-maximal inhibitory concentration (IC50) is 940 nM.

Take `Cn1c(=O)n(Cc2cccc(C(F)(F)F)c2)c(=O)c2cc(C(=O)OCc3ccccc3)sc21` [Example 110, 1-Methyl-2,4-dioxo-3-(3-trifluoromethyl-benzyl)-1,2,3,4-tetrahydro-thieno[2,3-d]pyrimidine-6-carboxylic acid benzyl ester]: the IC50 was 420 nM.

On to `Cn1c(=O)n(Cc2ccc(C(F)(F)F)cc2C(F)(F)F)c(=O)c2cc(C(=O)OCc3ccccc3)sc21` [Example 111, 3-(2,4-Bis-trifluoromethyl-benzyl)-1-methyl-2,4-dioxo-1.2.3.4-tetrahydro-thieno[2,3-d]pyrimidine-6-carboxylic acid benzyl ester], for which the IC50 amounted to 3200 nM.

In the case of `Cn1c(=O)n(CCN2C(=O)c3ccccc3C2=O)c(=O)c2cc(C(=O)OCc3ccccc3)sc21` [Example 112, 3-[2-(1,3-Dioxo-1,3-dihydro-isoindol-2-yl)-ethyl]-1-methyl-2,4-dioxo-1,2,3,4-tetrahydro-thieno[2,3-d]pyrimidine-6-carboxylic acid benzyl ester], the IC50 came out at 2900 nM.
